Each structure is given as a SMILES string. Converted amounts (≈) assume the structure as drawn. Read-outs that look alike come from different tables or passages of the source. Numbered stars: 1 amine (or outer) side, 2 acyl side, 3 side chain; on linkers, the order of the positions; unused ones are H or OH. Bridge positions count the residues as written; N and C are the ends. Side chains are listed from the residue outwards. Peptide text beside a SMILES is read from it. * marks the point of attachment. C20 diacid = O=C(O)CCCCCCCCCCCCCCCCCCC(=O)*; γGlu = O=C(O)[C@H](CCC(=O)[*:2])N[*:1]

One data set has as its system Sprague Dawley (SD) rats. Nature of the data set: ASSAY (I) efficacy testing on appetite (food intake) using an ad libitum fed rat model. Type of data set: in vivo. Conditions: rat, 30 nmol/kg. A digest of the protocol:
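Individual food consumption was logged each hour up to 7 h and again at 24 h, occasionally 48 h, with Grubbs-test outliers removed. Each 200–250 g Sprague Dawley rat, free-feeding in its home cage under reversed lighting, received a single ip, po or sc dose of 0.01–3 mg/kg at lights-off, alongside a vehicle group.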

A short description of data set [1]: ASSAY (III) ThT fibrillation assay for physical stability. Type of data set: physicochemical. A digest of the protocol:
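Physical stability scored by ThT fluorescence (444 nm excitation, 485 nm emission) tracked every 20 min during 37 °C incubation with 960 rpm shaking, ThT at 1 μM final. Values are replicate means with SD at chosen times; HPLC against pramlintide standard gives initial and post-assay soluble concentrations.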

Data set [2] is described as follows: ASSAY (IV) determination of solubility. The class given is physicochemical. An outline of the steps:
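Samples of polypeptide, prepared from a water stock at […] and diluted 1:1 into 100 mM buffers spanning pH 3.0 to 8.0, stood 18 hours at room temperature. Polypeptide concentration was then determined by UPLC following centrifugation.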

Setting [3] is: bistrispropane buffer, pH 6.5, read-out: Solubility pH 6.5 Concentration.
The mark [4] stands for this setting: bistrispropane buffer, pH 7.5, read-out: Solubility pH 7.5 Concentration.
Where [5] appears, read: bistrispropane buffer, pH 6.0, read-out: Solubility pH 6.0 Concentration.
Setting [6] is: bistrispropane buffer, pH 7.0, read-out: Solubility pH 7.0 Concentration.
Setting [7] is: bistrispropane buffer, pH 8.0, read-out: Solubility pH 8.0 Concentration.
Where [8] appears, read: glycylglycine buffer, pH 3.0, read-out: Solubility pH 3.0 Concentration.
Setting [9] is: glycylglycine buffer, pH 4.0, read-out: Solubility pH 4.0 Concentration.
The mark [10] stands for this setting: glycylglycine buffer, pH 5.0, read-out: Solubility pH 5.0 Concentration.

With `CC[C@H](C)[C@H](NC(=O)[C@H](C)NC(=O)CNC(=O)[C@H](Cc1ccccc1)NC(=O)[C@H](CC(N)=O)NC(=O)[C@@H]1CCCN1C(=O)[C@H](CO)NC(=O)[C@H](CO)NC(=O)[C@H](Cc1c[nH]cn1)NC(=O)[C@H](CCCNC(=N)N)NC(=O)[C@H](CC(C)C)NC(=O)[C@H](Cc1ccccc1)NC(=O)[C@H](CCC(=O)O)NC(=O)[C@H](C)NC(=O)[C@H](CC(C)C)NC(=O)[C@H](CCCNC(=N)N)NC(=O)[C@H](CCC(N)=O)NC(=O)[C@@H](NC(=O)[C@H](C)NC(=O)[C@@H]1CSSC[C@H](NC(=O)[C@@H](N)CCCCNC(=O)CC[C@H](NC(=O)CC[C@H](NC(=O)CCCCCCCCCCCCCCCCCCC(=O)O)C(=O)O)C(=O)O)C(=O)N[C@@H](CC(N)=O)C(=O)N[C@@H]([C@@H](C)O)C(=O)N[C@@H](C)C(=O)N[C@@H]([C@@H](C)O)C(=O)N1)[C@@H](C)O)C(=O)N1CCC[C@H]1C(=O)N[C@@H](CO)C(=O)N[C@@H](CO)C(=O)N[C@H](C(=O)N[C@@H](CC(N)=O)C(=O)N[C@H](C(=O)NCC(=O)N[C@@H](CO)C(=O)N[C@@H](CCCNC(=N)N)C(=O)N[C@H](C(=O)N[C@@H](Cc1ccc(O)cc1)C(N)=O)[C@@H](C)O)C(C)C)[C@@H](C)O` [Example 89] (H-K([γGlu-γGlu-C20 diacid])CNTATCATQRLAEFLRHSSPNFGAIPSSTNVGSRTY-NH2; disulfide 2-7 (inferred); N-terminus assumed), the “Food intake reduction 0-24 h 30 nmol/kg (%)” value in the data set with Sprague Dawley (SD) rats was found to be 46%. For the same compound, in the data set with Sprague Dawley (SD) rats, the “Food intake reduction 24-48 h 30 nmol/kg (%)” value came to 37%. For the same compound, the “ThT pH 4.0 lag time (h)” value in data set [1] stood at 43 h. Also, the solubility at 18 h in data set [2] (setting [3]) is no less than 200 µM; in data set [2] (setting [4]), 162 µM (≈ 738 µg/mL); in data set [2] (setting [5]) it was no less than 200 µM; in data set [2] (setting [6]) it was 172 µM (≈ 786 µg/mL); in data set [2] (setting [7]), 149 µM (≈ 681 µg/mL); in data set [2] (setting [8]), no less than 200 µM. Further, the solubility at 18 h in data set [2] (setting [9]) and in data set [2] (setting [10]) was no less than 200 µM in each case.
For `CC[C@H](C)[C@H](NC(=O)[C@H](C)NC(=O)CNC(=O)[C@H](Cc1ccccc1)NC(=O)[C@H](CC(N)=O)NC(=O)[C@@H]1CCCN1C(=O)[C@H](CO)NC(=O)[C@H](CO)NC(=O)[C@H](Cc1c[nH]cn1)NC(=O)[C@H](CCCNC(=N)N)NC(=O)[C@H](CC(C)C)NC(=O)[C@H](Cc1ccccc1)NC(=O)[C@H](CCC(=O)O)NC(=O)[C@H](C)NC(=O)[C@H](CC(C)C)NC(=O)[C@H](CCCNC(=N)N)NC(=O)[C@H](CCC(N)=O)NC(=O)[C@@H](NC(=O)[C@H](C)NC(=O)[C@@H]1CSSC[C@H](NC(=O)[C@@H](N)CCCCNC(=O)CC[C@H](NC(=O)CCCCCCCCCCCCCCCCCCC(=O)O)C(=O)O)C(=O)N[C@@H](CC(N)=O)C(=O)N[C@@H]([C@@H](C)O)C(=O)N[C@@H](C)C(=O)N[C@@H]([C@@H](C)O)C(=O)N1)[C@@H](C)O)C(=O)N1CCC[C@H]1C(=O)N[C@@H](CO)C(=O)N[C@@H](CO)C(=O)N[C@H](C(=O)N[C@@H](CC(N)=O)C(=O)N[C@H](C(=O)NCC(=O)N[C@@H](CCCNC(=N)N)C(=O)N[C@@H](CCC(=O)O)C(=O)N[C@H](C(=O)N[C@@H](Cc1ccc(O)cc1)C(N)=O)[C@@H](C)O)C(C)C)[C@@H](C)O` [Example 108] (H-K([γGlu-C20 diacid])CNTATCATQRLAEFLRHSSPNFGAIPSSTNVGRETY-NH2; disulfide 2-7; N-terminus assumed), the “Food intake reduction 0-24 h 30 nmol/kg (%)” value with Sprague Dawley (SD) rats came to 29%. Further, the “Food intake reduction 24-48 h 30 nmol/kg (%)” value in the data set with Sprague Dawley (SD) rats came out at 0%. Besides, the “ThT pH 4.0 lag time (h)” value in data set [1] was 45 h. The solubility at 18 h in data set [2] (setting [3]), in data set [2] (setting [4]), in data set [2] (setting [5]), in data set [2] (setting [6]), in data set [2] (setting [7]) and in data set [2] (setting [8]) was no less than 200 µM in each case. The solubility at 18 h in data set [2] (setting [9]) and in data set [2] (setting [10]) was no less than 200 µM throughout.
Consider `CC[C@H](C)[C@H](NC(=O)[C@H](C)NC(=O)CNC(=O)[C@H](Cc1ccccc1)NC(=O)[C@H](CC(N)=O)NC(=O)[C@@H]1CCCN1C(=O)[C@H](CO)NC(=O)[C@H](CO)NC(=O)[C@H](Cc1c[nH]cn1)NC(=O)[C@H](CCCNC(=N)N)NC(=O)[C@H](CC(C)C)NC(=O)[C@H](Cc1ccccc1)NC(=O)[C@H](CCC(=O)O)NC(=O)[C@H](C)NC(=O)[C@H](CC(C)C)NC(=O)[C@H](CCCNC(=N)N)NC(=O)[C@H](CCC(N)=O)NC(=O)[C@@H](NC(=O)[C@H](C)NC(=O)[C@@H]1CSSC[C@H](NC(=O)[C@H](CCCCN)NC(=O)CC[C@H](NC(=O)CCCCCCCCCCCCCCCCCCC(=O)O)C(=O)O)C(=O)N[C@@H](CC(N)=O)C(=O)N[C@@H]([C@@H](C)O)C(=O)N[C@@H](C)C(=O)N[C@@H]([C@@H](C)O)C(=O)N1)[C@@H](C)O)C(=O)N1CCC[C@H]1C(=O)N[C@@H](CO)C(=O)N[C@@H](CO)C(=O)N[C@H](C(=O)N[C@@H](CC(N)=O)C(=O)N[C@H](C(=O)NCC(=O)N1CCC[C@H]1C(=O)N[C@@H](CC(N)=O)C(=O)N[C@H](C(=O)N[C@@H](Cc1ccc(O)cc1)C(N)=O)[C@@H](C)O)C(C)C)[C@@H](C)O` [Example 32] ({C20 diacid-γGlu}-KCNTATCATQRLAEFLRHSSPNFGAIPSSTNVGPNTY-NH2; disulfide 2-7), for which the “Food intake reduction 0-24 h 30 nmol/kg (%)” value with Sprague Dawley (SD) rats is 62%. In the data set with Sprague Dawley (SD) rats, the “Food intake reduction 24-48 h 30 nmol/kg (%)” value is reported as 7%. In addition, the “ThT pH 4.0 lag time (h)” value in data set [1] is given as 45 h. The solubility at 18 h in data set [2] (setting [3]), in data set [2] (setting [4]), in data set [2] (setting [5]), in data set [2] (setting [6]), in data set [2] (setting [7]) and in data set [2] (setting [8]) was no less than 200 µM throughout. Further, the solubility at 18 h in data set [2] (setting [9]) and in data set [2] (setting [10]) was no less than 200 µM throughout.
Regarding `CC[C@H](C)[C@H](NC(=O)[C@H](C)NC(=O)CNC(=O)[C@H](Cc1ccccc1)NC(=O)[C@H](CC(N)=O)NC(=O)[C@@H]1CCCN1C(=O)[C@H](CO)NC(=O)[C@H](CO)NC(=O)[C@H](Cc1c[nH]cn1)NC(=O)[C@H](CCCNC(=N)N)NC(=O)[C@H](CC(C)C)NC(=O)[C@H](Cc1ccccc1)NC(=O)[C@H](CC(N)=O)NC(=O)[C@H](C)NC(=O)[C@H](CC(C)C)NC(=O)[C@H](CCCNC(=N)N)NC(=O)[C@H](CCC(N)=O)NC(=O)[C@@H](NC(=O)[C@H](C)NC(=O)[C@@H]1CSSC[C@H](NC(=O)[C@@H](N)CCCCNC(=O)CC[C@H](NC(=O)CCCCCCCCCCCCCCCCCCC(=O)O)C(=O)O)C(=O)N[C@@H](CC(N)=O)C(=O)N[C@@H]([C@@H](C)O)C(=O)N[C@@H](C)C(=O)N[C@@H]([C@@H](C)O)C(=O)N1)[C@@H](C)O)C(=O)N1CCC[C@H]1C(=O)N[C@@H](CO)C(=O)N[C@@H](CO)C(=O)N[C@H](C(=O)N[C@@H](CC(N)=O)C(=O)N[C@H](C(=O)NCC(=O)N[C@@H](CO)C(=O)N[C@@H](Cc1c[nH]cn1)C(=O)N[C@H](C(=O)N[C@@H](Cc1ccc(O)cc1)C(N)=O)[C@@H](C)O)C(C)C)[C@@H](C)O` [Example 60], the “Food intake reduction 0-24 h 30 nmol/kg (%)” value in the data set with Sprague Dawley (SD) rats is on record as 69%. The “Food intake reduction 24-48 h 30 nmol/kg (%)” value in the data set with Sprague Dawley (SD) rats was determined as 21%. The “ThT pH 4.0 lag time (h)” value in data set [1] is given as 45 h. In addition, the solubility at 18 h is no less than 200 µM in data set [2] (setting [3]); 186 µM (≈ 819 µg/mL) in data set [2] (setting [4]); no less than 200 µM in data set [2] (setting [5]); no less than 200 µM in data set [2] (setting [6]); 98 µM (≈ 432 µg/mL) in data set [2] (setting [7]); no less than 200 µM in data set [2] (setting [8]). In addition, the solubility at 18 h in data set [2] (setting [9]) and in data set [2] (setting [10]) was no less than 200 µM in each case.

Source of the values: patent publication US9023789B2, “Amylin analogs and pharmaceutical compositions thereof” (Novo Nordisk A/S, priority 2012, dated 2015).
